# Laboratory results taken from publication PMC8232704, “Hydrophobic Tagging-Mediated Degradation of Transcription Coactivator SRC-1” (International Journal of Molecular Sciences, 2021).
# Bridge positions count the residues as written; N and C are the ends. Square brackets hold non-standard residues; d marks the D form. Peptide text beside a SMILES is read from it. N(1-adamantyl)Gly = O=C(O)CNC12CC3CC(CC(C3)C1)C2; Cha = N[C@@H](CC1CCCCC1)C(=O)O; S5 = C=CCCC[C@](C)(N)C(=O)O; PEG3 = NCCOCCOCCOCCC(=O)O
# Assays:
# [1] = biological target: T1, PAS-B domain of human SRC-1 (residues 257–385) (Homo sapiens, UniProt Q15788); test: Competitive fluorescence polarization (FP) assay, fluorescein-labeled STAT-6 peptide binding to SRC-1; settings: 100 nM fluorescein-labeled 15-mer STAT-6 peptide, 1 μM PAS-B domain of SRC-1, HEPES pH 7.4, SD from three independent experiments
# T1 construct: PAS-B domain of human SRC-1 (residues 257–385); His6; made in house; host or cells: Rosetta E. coli
# T1 sequence (Q15788 257-385): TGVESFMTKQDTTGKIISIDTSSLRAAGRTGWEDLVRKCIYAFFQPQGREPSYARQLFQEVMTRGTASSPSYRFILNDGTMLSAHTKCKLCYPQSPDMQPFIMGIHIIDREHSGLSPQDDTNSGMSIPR
# Description: A plasmid expressing the PAS-B domain of human SRC-1 (residues 257–385) tagged with His6 was provided by John A. Robinson (University of Zürich at Switzerland). It was transformed into Rosetta E. coli cells. SRC-1 protein purification was performed as described previously.
# After incubating 100 nM of fluorescein-labeled 15-mer STAT-6 peptide with 1 μM of PAS-B domain of SRC-1 in a binding buffer (50 mM HEPES pH 7.4, 150 mM NaCl, 3.4 mM EDTA, and 0.01% Tween 20) in a black Greiner 384-well plate for 30 min, indicated concentrations of YL2 and YL2-HyT1 through YL2-HyT6 were added to each well. After incubation for another 1.5 h, fluorescence polarization was measured on a Tecan Infinite F200 Pro microplate reader (excitation wavelength: 485 nm, emission wavelength: 535 nm). The Ki values of the compounds in the competition assay were determined using the following equation [43]. (1) Ki=[I]50/[L]50/KD+[P]0/KD+1 where [I]50 is the concentration of the free inhibitor at 50% inhibition, KD is the dissociation constant of the protein–ligand complex, [L]50 is the concentration of the free labeled ligand at 50% inhibition, and [P]0 is the concentration of the free protein at 0% inhibition.
# [2] = biological target: T2, SRC-1 in MDA-MB-231 cells (Homo sapiens, UniProt Q15788); test: Immunoblot analysis of cellular SRC-1 levels (SRC-1 degradation); type: cell-based; settings: for SRC-1 (%): normalized to GAPDH and DMSO controls
# T2 construct: endogenous in cells; host or cells: MDA-MB-231
# T2 sequence (Q15788 whole entry): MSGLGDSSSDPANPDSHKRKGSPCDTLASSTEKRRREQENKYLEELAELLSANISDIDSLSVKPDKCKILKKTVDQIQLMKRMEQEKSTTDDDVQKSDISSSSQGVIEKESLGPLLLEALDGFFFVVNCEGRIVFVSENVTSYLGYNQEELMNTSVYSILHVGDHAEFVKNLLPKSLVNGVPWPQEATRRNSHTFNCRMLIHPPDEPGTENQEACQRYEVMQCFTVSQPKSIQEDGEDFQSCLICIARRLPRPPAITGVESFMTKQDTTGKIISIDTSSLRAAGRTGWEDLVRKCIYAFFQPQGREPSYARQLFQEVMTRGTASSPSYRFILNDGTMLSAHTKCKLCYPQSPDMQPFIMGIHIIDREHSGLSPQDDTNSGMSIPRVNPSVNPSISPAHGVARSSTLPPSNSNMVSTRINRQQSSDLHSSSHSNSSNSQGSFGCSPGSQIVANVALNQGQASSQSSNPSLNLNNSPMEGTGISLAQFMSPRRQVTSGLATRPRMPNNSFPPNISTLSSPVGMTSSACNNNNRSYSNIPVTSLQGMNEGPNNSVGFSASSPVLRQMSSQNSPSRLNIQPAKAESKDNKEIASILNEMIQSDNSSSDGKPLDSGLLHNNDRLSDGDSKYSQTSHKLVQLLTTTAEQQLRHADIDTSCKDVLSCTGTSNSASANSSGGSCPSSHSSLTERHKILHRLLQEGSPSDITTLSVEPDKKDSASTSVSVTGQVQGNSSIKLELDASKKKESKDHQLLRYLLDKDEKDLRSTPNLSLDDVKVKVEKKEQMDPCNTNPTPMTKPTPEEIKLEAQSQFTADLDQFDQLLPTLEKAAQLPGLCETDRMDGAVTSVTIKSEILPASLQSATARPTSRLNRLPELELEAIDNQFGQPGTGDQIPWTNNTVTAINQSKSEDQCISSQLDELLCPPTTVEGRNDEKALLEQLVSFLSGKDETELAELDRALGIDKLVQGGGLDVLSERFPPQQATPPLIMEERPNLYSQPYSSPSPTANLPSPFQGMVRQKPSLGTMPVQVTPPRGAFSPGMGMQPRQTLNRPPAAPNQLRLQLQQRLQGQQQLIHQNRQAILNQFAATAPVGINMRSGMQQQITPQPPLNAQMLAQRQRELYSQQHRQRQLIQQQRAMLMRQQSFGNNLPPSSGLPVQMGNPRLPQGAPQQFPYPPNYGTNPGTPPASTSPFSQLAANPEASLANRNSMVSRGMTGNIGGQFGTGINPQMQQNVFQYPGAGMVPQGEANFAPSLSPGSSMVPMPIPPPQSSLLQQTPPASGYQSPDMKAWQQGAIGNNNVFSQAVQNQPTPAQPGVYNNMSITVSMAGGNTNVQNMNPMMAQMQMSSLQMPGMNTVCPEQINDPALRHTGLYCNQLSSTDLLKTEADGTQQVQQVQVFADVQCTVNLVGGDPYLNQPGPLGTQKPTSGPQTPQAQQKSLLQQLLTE
# Description: MDA-MB-231 and HEK293T cells were cultured in a medium containing Dulbecco’s modified eagle medium (DMEM) supplemented with 1% penicillin–streptomycin (PS) and 10% FBS with 5% CO2 at 37 °C.
# MDA-MB-231 cells were seeded into 6-well pates (Corning, 3506) at a density of 6 × 10^5 cell per well. After incubation at 37 °C for 24 h, cells were treated with synthesized compounds in Opti-MEM medium for 12, 18, or 24 h. Cells were washed twice with cold Dulbecco’s phosphate-buffered saline (DPBS) prior to cell lysis using a cell lysis buffer (1% Triton X-100, 150 mM NaCl, 50 mM Tris-HCl pH 7.6, 0.1% SDS, 0.5% sodium deoxycholate, and 1 × protease inhibitor cocktail) on ice. Cell lysates were centrifuged at 13,000 rpm at 4 °C for 15 min. The supernatant was collected, and protein concentration was determined using Pierce^TM 660nm protein assay. A 6 × SDS loading buffer was added to the cell lysate and incubated at 95 °C for 5 min. The same amount of protein was subjected to SDS-PAGE and transferred to PVDF membranes. After blocking membranes with 5% skim milk in TBST (Tris-buffered saline with 0.05% Tween 20), membranes were incubated with a primary antibody at 4 °C overnight. Membranes were then incubated with HRP-linked secondary antibody at rt for 1 h and developed with Pico ECL solution. In MG-132 and 17-AAG treatment experiments, MDA-MB-231 cells were cotreated with synthesized compounds and MG-132 (5 μM) or 17-AAG (1 μM) at 37 °C for 18 h.
# HEK293T cells = test: Cell viability assay (Cyto X); type: cell-based, human; settings: 48 h, Opti-MEM
# Description: (§1) MDA-MB-231 (1 × 10^4 cells/well) and HEK293T (1 × 10^4 cells/well) cells were seeded into a 96-well plate (Corning, 3595) and incubated at 37 °C with 5% CO2 for 24 h. These cells were then washed twice with DPBS and treated with 1% DMSO or various concentrations of YL2-HyT6 for 48 h in Opti-MEM medium. The remaining cells were then used to measure cell viability using a Cyto X cell viability assay kit (LPS solution, Daejeon, Korea, CYT3000) following the manufacturer’s instruction.
# MDA-MB-231 cells = test: Cell viability assay (Cyto X); type: cell-based, human; settings: 48 h, Opti-MEM
# Description: as §1
compound,measurement,setting,value
CC(C)C[C@H](NC(=O)CCOCCOCCOCCNC(=O)CNC12CC3CC(CC(C3)C1)C2)C(=O)N[C@@H](CC(C)C)C(=O)N1CCC[C@H]1C(=O)N1CCC[C@H]1C(=O)N[C@H](C(=O)N[C@@H](CCC(=O)O)C(=O)N[C@@H](CCC(N)=O)C(=O)N[C@@H](CC(=O)O)C(=O)N[C@@H](CC(C)C)C(=O)N[C@@]1(C)CCC/C=C\CCC[C@@](C)(C(=O)N[C@@H](Cc2ccc(O)cc2)C(N)=O)NC(=O)[C@H](CC2CCCCC2)NC(=O)[C@H](CC(C)C)NC(=O)[C@H](CCCCN)NC1=O)[C@@H](C)O [YL2-HyT6] (H-[N(1-adamantyl)Gly][PEG3]LLPPTEQDL[S5]KL[Cha][S5]Y-NH2; staple (Z) 12-16; C-terminus assumed),Ki,[1],0.237 µM
same,SRC-1 (%),"[2]; MDA-MB-231 cells, 10 μM compound, 18 h",30%
same,SRC-1 (%),"[2]; MDA-MB-231 cells, 20 μM compound, 18 h",20%
same,Time to recovery of SRC-1 after washing out compound,"[2]; MDA-MB-231 cells, 20 μM for 18 h, then washed away",≤ 12 h
same,Time-dependent SRC-1 degradation,"[2]; MDA-MB-231 cells, 20 μM, various time periods up to 24 h",evidently degraded after 6 h
same,SRC-1 (%),"[2]; MDA-MB-231 cells, 50 μM compound, 18 h",13%
same,SRC-1 degradation activity compared within YL2-HyT1–6,"[2]; MDA-MB-231 cells, 12, 18 and 24 h",most effective SRC-1 degradation activity at all three time points
same,DC50,"[2]; MDA-MB-231 cells, 18 h, immunoblot quantitation (Figure S4), three independent experiments, read-out: DC50 (reduction of cellular SRC-1 levels)",~5 µM
same,SRC-1 levels on cotreatment with Hsp90 inhibitor 17-AAG,"[2]; MDA-MB-231 cells, YL2-HyT6 2.5 μM with 17-AAG (1 μM), 18 h",SRC-1 degradation even at a concentration that did not affect SRC-1 levels previously
same,SRC-1 levels on cotreatment with proteasome inhibitor MG-132,"[2]; MDA-MB-231 cells, cotreated with MG-132 (5 μM), 18 h",SRC-1 levels were not changed in the presence of MG-132
same,Cell viability,HEK293T cells,little effect on cell viability
same,Cell viability,MDA-MB-231 cells,little effect on cell viability
